Assay [1] has as its system 12 and 16 month-old WT mice. Put plainly: Peripheral osteocalcin delivery by mini-pumps in aging WT mice, DLT, EPMT, MWMT, NOR. It counts as in vivo, mouse. The note with it: 30 or 90 ng/h peripherally via mini-pumps for 60 days. The protocol:
For plasma injection experiments, 100 μl of plasma were injected 8 times during 24 days, via tail vein. Each group described is represented individually in each panel. For osteocalcin delivery in WT mice, pumps (Alzet micro-osmotic pump, Model 1002) delivering osteocalcin (30 ng/hr for 12 month-old and 90 ng/hr for 16 month-old mice), or vehicle, were surgically installed subcutaneously in the back of mice. For alendronate delivery to 3 month-old mice, intraperitoneal injections (40 μg/kg) were performed twice a week for 6 weeks. During the last 4 weeks of treatment and during behavioral testing, half of the alendronate-treated mice received 60 ng/hr osteocalcin by osmotic pump. […]
Elevated plus maze test (EPMT): This test takes advantage of the aversion of rodents to open spaces. […] The total number of arm entries and time spent in open arms is recorded. […]
Light to dark transition test: This test is based on the innate aversion of rodents to brightly illuminated areas and on their spontaneous exploratory behavior in response to the stressor that light represents. […] Mice were tested for 6 min and […] were recorded: (i) latency to enter the lit compartment, (ii) time spent in this compartment, an index of the anxiety-related behavior and (iii) number of transitions between compartments, an index of anxiety-related behavior as well as exploratory activity. […]

The test system of assay [2] is Tph2, Th, Gad1 expression in brainstem and midbrain explants. Put plainly: Gene expression (qPCR) in brainstem and midbrain explants. The assay is classed as cell-based, mouse. The protocol: (§1) For gene expression studies, RNA was isolated from primary neurons or tissue using TRIZOL® (Invitrogen). cDNA synthesis was performed following a standard protocol from Invitrogen and qPCR analyses were done using specific quantitative PCR primers from SABiosciences (http://www.sabiosciences.com/RT2PCR.php).
Brains were dissected and incubated for 30 minutes in ice cold oxygenated artificial cerebrospinal fluid (ACSF). Brains were then sliced at 500 μm at the midbrain, −1.55 to −2.35 mm from the bregma, and at the level of the brainstem, from −4.04 to −4.48 mm and from −4.60 to −5.20 mm from the bregma, to include the median and dorsal raphe, respectively. These slices were incubated in ACSF for 1 h, constantly oxygenated (95% O2 and 5% CO2) […], after which they were treated with either osteocalcin (10 ng/ml) or PBS for four hours. Expression of Tph2, TH, GAD 1, GAD2, and Ddc was measured by qPCR.
To determine if osteocalcin acts directly on neurons to modulate neurotransmitter synthesis, several types of assays were performed. First, brainstem and midbrain explants from WT and Gprc6a^−/− mice were generated. Brains were sliced (500 μm) at the level of the median and dorsal raphe of the brainstem (from −4.04 to −4.48 mm and from −4.60 to −5.20 mm, respectively), so that they would be enriched in serotonin-producing neurons, as well as at the level of substantia nigrae and ventral tegmental areas (VTA) of the midbrain (from −1.55 to −2.35 mm and from −2.55 to −3.25 mm, respectively). Enrichment in serotoninergic and catecholaminergic neurons in these explants was verified by their high Tph2 and Th expression. While leptin, used here as a positive control, reduced, as it should, Tph2 expression in WT or Gprc6a^−/− brainstem explants, osteocalcin ([…]) increased expression of this gene 2.5 fold in both WT and Gprc6a^−/− explants. (FIG. 3D). […] Third, to further confirm that osteocalcin signals in neurons of the hindbrain, calcium flux in MPHN treated with undercarboxylated or carboxylated osteocalcin (FIG. 3F) was measured.

Assay [3] relates to mouse primary hindbrain neurons (MPHN). Nature of the assay: Gene expression in mouse primary hindbrain neurons (MPHN). The assay is classed as cell-based. The note with it: osteocalcin 3 ng/ml, 2 or 4 hours; WT and Gprc6a−/− primary brainstem neuronal culture. The protocol: as §1
For primary culture of hindbrain neurons, E14.5 embryos were obtained from matings of 129-Sv WT mice. Hindbrains were dissected out and collected in ice-cold filter sterilized HBSS buffered with 10 mM HEPES until dissection was complete, at which point they were finely chopped into 2 mm cubes, dissociated by trituration with a fire-polished Pasteur pipette and spun down at 4° C. Cells were then plated onto poly-D-lysine coated coverslips or dishes in Neurobasal medium supplemented with 2% B27, 0.25 mM Glutamax, 0.25 mM L-glutamine, penicillin G (50 U/ml), and streptomycin sulphate ([…]). Cultures were fed every 3-6 days with one half replacement medium without L-glutamine.
To determine if osteocalcin acts directly on neurons to modulate neurotransmitter synthesis, several types of assays were performed. First, brainstem and midbrain explants from WT and Gprc6a^−/− mice were generated. […] Third, to further confirm that osteocalcin signals in neurons of the hindbrain, calcium flux in MPHN treated with undercarboxylated or carboxylated osteocalcin (FIG. 3F) was measured.

The text below walks through data of patent US20200069775A1, “BRAIN OSTEOCALCIN RECEPTOR AND COGNITIVE DISORDERS” (The Trustees of Columbia University in the City of New York, priority 2017, published 2020).

Take “osteocalcin: Recombinant osteocalcin bacterially produced, cleaved from the GST subunit; completely undercarboxylated at all three sites; full-length mouse osteocalcin (YLGASVPSPDPLEPTREQCELNPACDELSDQYGLKTAYKRIYGITI)”: the “memory (MWMT and NOR)” value in assay [1] (12- and 16-month-old WT mice) is listed as “memory was significantly improved”. Besides, the “exploratory and anxiety-like behavior (DLT or EPMT)” value in assay [1] (12 and 16 month-old WT mice) is “better exploratory behavior and decreased anxiety-like behavior”. For the same substance, the Gad1 expression entry in assay [2] (WT and Gprc6a−/− hindbrain explants) is reported as “decreased Gad1 expression”. Further, the Th expression result in assay [2] (midbrain explants) was “increased Th expression”. In assay [2] (osteocalcin 3 ng/ml, WT and Gprc6a−/− brainstem explants), the “increase of Tph2 expression” value amounted to 2.5 fold. For the same substance, in assay [3], the Tph2 expression result is given as “increased more than three-fold” and the “decrease of GAD1 expression” value came out at 65%.
